Columns and labels:
Assay in all cases: KINOMEscan competitive binding, whole panel
panel of 203 kinases [1] = target: T1, panel of 203 kinases (Homo sapiens, UniProt P09769); settings: 10 µM, n=1; kinase FGR; read-out: Percent inhibition FGR
T1 construct: purchased DiscoverX (KINOMEscan)
Source text: (§1) The kinases were expressed as fusions to T7 bacteriophage. This is a sensitive, competitive binding assay where test compounds were used to displace immobilized ATP-site binding probe ligands from kinases of interest. The amount of kinase that remained bound to the immobilized probe ligands on the solid support was quantified. Percentage inhibition data were was plotted on kinome trees using the web-based tool KinMap (http://www.kinhub.org/kinmap) ([60]).

panel of 203 kinases [2] = target: T2, panel of 203 kinases (Homo sapiens, UniProt P54753); settings: 10 µM, n=1; kinase EPHB3; read-out: Percent inhibition EPHB3
T2 construct: purchased DiscoverX (KINOMEscan)
T2 sequence (P54753 34-998): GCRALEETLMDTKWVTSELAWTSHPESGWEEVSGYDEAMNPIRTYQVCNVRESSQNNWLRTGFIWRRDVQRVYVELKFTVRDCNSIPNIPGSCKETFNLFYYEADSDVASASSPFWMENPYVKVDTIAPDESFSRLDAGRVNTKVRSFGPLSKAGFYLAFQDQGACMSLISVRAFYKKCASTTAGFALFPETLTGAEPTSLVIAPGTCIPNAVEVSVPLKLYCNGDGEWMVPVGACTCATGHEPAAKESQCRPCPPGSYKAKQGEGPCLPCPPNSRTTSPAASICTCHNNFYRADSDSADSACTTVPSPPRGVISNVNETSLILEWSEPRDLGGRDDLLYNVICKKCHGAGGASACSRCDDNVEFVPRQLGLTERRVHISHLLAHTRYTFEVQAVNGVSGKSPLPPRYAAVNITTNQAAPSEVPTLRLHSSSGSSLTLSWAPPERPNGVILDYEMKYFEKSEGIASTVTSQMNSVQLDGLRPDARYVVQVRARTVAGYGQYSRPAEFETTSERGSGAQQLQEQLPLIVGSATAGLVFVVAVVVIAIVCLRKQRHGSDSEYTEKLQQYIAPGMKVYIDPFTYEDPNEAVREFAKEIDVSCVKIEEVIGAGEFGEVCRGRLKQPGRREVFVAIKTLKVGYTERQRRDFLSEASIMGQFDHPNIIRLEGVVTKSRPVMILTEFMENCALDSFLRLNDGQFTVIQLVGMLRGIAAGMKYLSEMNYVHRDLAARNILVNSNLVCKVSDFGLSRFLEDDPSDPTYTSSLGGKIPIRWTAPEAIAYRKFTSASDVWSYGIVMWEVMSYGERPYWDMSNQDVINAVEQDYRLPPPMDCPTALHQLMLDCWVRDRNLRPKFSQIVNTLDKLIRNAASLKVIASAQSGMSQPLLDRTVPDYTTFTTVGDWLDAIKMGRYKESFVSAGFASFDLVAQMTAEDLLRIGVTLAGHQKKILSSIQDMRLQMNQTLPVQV
Source text: as §1

panel of 203 kinases [3] = target: T3, panel of 203 kinases (Homo sapiens, UniProt Q9Y6R4); settings: 10 µM, n=1; kinase MAP3K4; read-out: Percent inhibition MAP3K4
T3 construct: purchased DiscoverX (KINOMEscan)
T3 sequence (Q9Y6R4 whole entry): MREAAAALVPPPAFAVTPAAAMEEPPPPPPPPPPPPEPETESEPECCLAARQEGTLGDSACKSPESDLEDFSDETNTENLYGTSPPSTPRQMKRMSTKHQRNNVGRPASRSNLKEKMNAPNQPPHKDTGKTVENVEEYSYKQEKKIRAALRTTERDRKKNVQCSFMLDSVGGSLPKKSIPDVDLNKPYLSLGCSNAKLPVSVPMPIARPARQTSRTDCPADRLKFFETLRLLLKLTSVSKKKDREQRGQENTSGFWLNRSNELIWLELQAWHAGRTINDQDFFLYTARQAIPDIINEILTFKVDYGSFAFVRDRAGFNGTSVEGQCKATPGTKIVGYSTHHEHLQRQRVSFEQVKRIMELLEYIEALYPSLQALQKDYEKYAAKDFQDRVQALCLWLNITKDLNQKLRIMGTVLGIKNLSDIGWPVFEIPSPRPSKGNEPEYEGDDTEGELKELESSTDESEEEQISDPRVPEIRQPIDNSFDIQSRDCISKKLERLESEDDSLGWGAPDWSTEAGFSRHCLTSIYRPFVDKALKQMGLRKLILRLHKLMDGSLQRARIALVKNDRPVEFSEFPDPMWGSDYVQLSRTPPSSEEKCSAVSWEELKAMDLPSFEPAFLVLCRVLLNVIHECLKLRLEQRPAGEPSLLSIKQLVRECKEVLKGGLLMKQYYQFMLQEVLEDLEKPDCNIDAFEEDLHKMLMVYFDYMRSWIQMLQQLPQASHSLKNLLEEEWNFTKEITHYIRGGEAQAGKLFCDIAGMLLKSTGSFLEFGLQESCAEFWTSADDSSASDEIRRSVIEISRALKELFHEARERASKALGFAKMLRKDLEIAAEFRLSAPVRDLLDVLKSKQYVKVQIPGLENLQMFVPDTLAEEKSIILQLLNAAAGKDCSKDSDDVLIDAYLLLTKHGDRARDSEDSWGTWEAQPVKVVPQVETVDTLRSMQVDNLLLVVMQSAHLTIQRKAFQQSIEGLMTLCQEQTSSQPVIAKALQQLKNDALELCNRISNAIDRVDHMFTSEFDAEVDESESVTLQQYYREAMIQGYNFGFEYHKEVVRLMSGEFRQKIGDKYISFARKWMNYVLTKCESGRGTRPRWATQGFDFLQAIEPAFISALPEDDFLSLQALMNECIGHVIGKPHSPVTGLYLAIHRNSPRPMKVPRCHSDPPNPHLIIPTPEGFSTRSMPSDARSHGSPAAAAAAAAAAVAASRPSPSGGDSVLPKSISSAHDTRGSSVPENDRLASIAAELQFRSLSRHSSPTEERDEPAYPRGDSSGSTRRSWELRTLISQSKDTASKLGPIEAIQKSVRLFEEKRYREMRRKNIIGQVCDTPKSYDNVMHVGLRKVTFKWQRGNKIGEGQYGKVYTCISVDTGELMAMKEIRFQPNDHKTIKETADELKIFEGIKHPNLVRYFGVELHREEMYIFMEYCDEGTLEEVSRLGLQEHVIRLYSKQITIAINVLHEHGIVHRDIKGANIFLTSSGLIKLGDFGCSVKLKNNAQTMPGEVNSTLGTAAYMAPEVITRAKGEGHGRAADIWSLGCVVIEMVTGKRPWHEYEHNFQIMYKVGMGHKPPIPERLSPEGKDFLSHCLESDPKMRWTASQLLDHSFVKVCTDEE
Source text: as §1

panel of 203 kinases [4] = target: T4, panel of 203 kinases (Homo sapiens, UniProt Q9UQB9); settings: 10 µM, n=1; kinase AURKC; read-out: Percent inhibition AURKC
T4 construct: purchased DiscoverX (KINOMEscan)
T4 sequence (Q9UQB9 1-309): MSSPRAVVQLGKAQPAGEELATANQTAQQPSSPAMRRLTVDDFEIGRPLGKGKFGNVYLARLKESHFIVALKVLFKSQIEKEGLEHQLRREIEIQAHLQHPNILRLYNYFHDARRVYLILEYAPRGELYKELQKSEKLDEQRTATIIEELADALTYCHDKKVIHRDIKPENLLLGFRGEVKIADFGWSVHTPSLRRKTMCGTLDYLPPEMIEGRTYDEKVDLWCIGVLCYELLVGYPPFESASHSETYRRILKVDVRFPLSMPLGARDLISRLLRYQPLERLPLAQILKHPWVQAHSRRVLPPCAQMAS
Source text: as §1

panel of 203 kinases [5] = target: T5, panel of 203 kinases (Homo sapiens, UniProt P29376); settings: 10 µM, n=1; kinase LTK; read-out: Percent inhibition LTK
T5 construct: purchased DiscoverX (KINOMEscan)
T5 sequence (P29376 17-864): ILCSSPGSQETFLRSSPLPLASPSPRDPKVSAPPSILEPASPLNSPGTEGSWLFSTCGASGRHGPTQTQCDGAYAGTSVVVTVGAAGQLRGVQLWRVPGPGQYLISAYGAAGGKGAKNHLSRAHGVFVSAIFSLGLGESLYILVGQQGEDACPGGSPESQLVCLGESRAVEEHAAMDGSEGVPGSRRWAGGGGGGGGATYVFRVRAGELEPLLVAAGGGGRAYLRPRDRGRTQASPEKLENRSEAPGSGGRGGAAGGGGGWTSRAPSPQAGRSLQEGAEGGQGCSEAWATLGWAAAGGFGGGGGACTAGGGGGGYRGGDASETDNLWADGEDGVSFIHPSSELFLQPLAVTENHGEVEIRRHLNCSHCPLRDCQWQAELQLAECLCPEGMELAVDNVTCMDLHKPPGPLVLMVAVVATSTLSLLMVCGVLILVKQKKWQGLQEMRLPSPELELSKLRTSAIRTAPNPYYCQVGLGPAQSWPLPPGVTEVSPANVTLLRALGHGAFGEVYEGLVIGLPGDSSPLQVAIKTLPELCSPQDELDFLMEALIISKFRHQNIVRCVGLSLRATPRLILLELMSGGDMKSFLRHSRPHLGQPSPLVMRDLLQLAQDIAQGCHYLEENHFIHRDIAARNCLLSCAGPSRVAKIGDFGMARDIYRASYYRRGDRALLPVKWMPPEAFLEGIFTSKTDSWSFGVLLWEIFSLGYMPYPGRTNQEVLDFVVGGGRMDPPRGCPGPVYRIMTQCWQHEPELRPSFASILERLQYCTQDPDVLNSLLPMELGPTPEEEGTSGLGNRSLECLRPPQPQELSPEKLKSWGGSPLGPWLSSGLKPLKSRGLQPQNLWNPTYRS
Source text: as §1

panel of 203 kinases [6] = target: T6, panel of 203 kinases (Homo sapiens, UniProt Q9Y2H1); settings: 10 µM, n=1; kinase NDR2; read-out: Percent inhibition NDR2
T6 construct: purchased DiscoverX (KINOMEscan)
T6 sequence (Q9Y2H1 whole entry): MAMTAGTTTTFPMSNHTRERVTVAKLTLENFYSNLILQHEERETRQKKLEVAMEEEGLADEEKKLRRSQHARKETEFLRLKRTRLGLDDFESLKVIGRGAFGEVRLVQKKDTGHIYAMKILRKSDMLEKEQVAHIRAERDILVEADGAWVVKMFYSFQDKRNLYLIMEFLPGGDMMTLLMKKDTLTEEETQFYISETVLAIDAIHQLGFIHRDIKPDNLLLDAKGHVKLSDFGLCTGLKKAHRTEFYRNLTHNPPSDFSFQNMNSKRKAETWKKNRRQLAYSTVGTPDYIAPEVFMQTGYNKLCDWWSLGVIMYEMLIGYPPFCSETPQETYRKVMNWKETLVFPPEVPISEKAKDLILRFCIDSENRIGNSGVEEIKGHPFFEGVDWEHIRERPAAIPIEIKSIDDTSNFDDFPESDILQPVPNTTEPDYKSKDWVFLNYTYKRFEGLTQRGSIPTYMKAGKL
Source text: as §1

panel of 203 kinases [7] = target: T7, panel of 203 kinases (Homo sapiens, UniProt P51813); settings: 10 µM, n=1; kinase BMX; read-out: Percent inhibition BMX
T7 construct: purchased DiscoverX (KINOMEscan)
T7 sequence (P51813 1-675): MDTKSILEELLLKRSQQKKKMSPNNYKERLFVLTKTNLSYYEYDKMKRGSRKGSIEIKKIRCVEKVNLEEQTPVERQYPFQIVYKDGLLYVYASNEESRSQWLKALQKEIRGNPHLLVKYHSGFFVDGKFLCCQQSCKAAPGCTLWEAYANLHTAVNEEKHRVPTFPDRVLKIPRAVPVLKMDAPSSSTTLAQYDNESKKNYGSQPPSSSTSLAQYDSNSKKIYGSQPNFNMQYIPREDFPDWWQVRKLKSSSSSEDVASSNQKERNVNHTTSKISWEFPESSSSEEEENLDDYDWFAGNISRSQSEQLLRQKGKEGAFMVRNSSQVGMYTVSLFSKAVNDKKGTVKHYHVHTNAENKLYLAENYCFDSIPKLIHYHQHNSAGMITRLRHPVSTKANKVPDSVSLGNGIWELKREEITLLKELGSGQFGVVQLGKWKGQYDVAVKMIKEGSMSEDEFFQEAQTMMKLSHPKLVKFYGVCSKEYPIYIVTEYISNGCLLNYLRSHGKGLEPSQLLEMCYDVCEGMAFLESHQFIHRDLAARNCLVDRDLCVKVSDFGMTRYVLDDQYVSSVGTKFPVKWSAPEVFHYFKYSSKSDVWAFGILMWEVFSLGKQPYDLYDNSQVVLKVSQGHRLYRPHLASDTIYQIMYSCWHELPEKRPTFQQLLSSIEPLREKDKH
Source text: as §1

T1 sequence (P09769 whole entry): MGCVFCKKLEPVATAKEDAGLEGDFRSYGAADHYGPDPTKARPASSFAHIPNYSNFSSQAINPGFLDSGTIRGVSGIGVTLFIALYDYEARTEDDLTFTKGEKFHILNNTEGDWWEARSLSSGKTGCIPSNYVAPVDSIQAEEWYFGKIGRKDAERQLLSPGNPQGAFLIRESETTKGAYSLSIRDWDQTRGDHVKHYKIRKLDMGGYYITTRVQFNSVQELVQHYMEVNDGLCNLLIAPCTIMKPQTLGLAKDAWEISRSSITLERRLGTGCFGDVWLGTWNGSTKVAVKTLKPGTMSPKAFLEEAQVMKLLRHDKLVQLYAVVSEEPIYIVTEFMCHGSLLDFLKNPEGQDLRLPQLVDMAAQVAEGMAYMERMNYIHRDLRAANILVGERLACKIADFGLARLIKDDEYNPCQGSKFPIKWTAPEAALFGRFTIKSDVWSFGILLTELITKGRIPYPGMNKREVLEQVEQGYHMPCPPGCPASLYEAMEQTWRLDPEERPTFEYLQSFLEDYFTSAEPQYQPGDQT

SMILES | inhibition at 10 µM (panel of 203 kinases [1]) [%] | inhibition at 10 µM (panel of 203 kinases [2]) [%] | inhibition at 10 µM (panel of 203 kinases [3]) [%] | inhibition at 10 µM (panel of 203 kinases [4]) [%] | inhibition at 10 µM (panel of 203 kinases [5]) [%] | inhibition at 10 µM (panel of 203 kinases [6]) [%] | inhibition at 10 µM (panel of 203 kinases [7]) [%]
C[C@@H](Oc1cc(-c2cnc3ccccn23)sc1C(N)=O)c1ccccc1Cl [Compound 8] | 0 | 0 | 0 | 96 | 0 | 0 | 0
Cc1ccc(O)cc1N(C)c1ccnc(Nc2cccc(S(N)(=O)=O)c2)n1 [Compound 4] | 100 | 100 | 0 | 0 | 69.7 | 69.4 | 100
COc1cc(Nc2nccc(-c3sc(N)nc3-c3cccc(NC(=O)c4c(F)cccc4F)c3)n2)cc(OC)c1OC [Compound 7] | 100 | 0 | 99.6 | 85.7 | 0 | 100 | 100
CN1CCN(c2ccc(Nc3nccc(-c4cnn5ncccc45)n3)cc2C#N)CC1 [Compound 1] | 89.5 | 0 | 91 | 96.5 | 0 | 0 | 0
Fc1cccc(COc2ccc(Nc3ncnc4c3CN(CCN3CCOCC3)CC4)cc2Cl)c1 [Compound 6] | 0 | 0 | 0 | 0 | 0 | 0 | 0
Cc1ccc(O)cc1Nc1ccnc(Nc2cccc(C(N)=O)c2)n1 [Compound 3] | 100 | 100 | 0 | 0 | 0 | 0 | –
Clc1ccc(Nc2ncc(-c3ccccc3)s2)cc1 [Compound 10] | 0 | 0 | 0 | 0 | 0 | 0 | 0
COc1ccc(Nc2nccc(-c3cnn4ncccc34)n2)cc1 [Compound 2] | 67.4 | 0 | 0 | 91.1 | 80.8 | 91.7 | 0
c1ccc(COc2cccc(-c3ccnc4[nH]ccc34)c2)cc1 [Compound 9] | 0 | 0 | 0 | 0 | 0 | 0 | 0
Nc1ncc2c(-c3ccncc3)c[nH]c2n1 [Compound 11] | 76.8 | 0 | 0 | 0 | 0 | 0 | 0
